Reference: publication PMC10495297, “Three new amide derivatives from the fungus Alternaria brassicicola” (Natural Products and Bioprospecting, 2023)

Key:
[1] = MTT cytotoxicity assay, HT-29; format: cell-based; settings: human, HT-29 cells, HT-29, MTT, 0.064 to 40 μM
Description: (§1) Compounds 1–6 were tested for the cytotoxicity against six cell lines, including five human cancer cell lines (HepG2, Hep3B, HT-29, HeLa, and OCVAR) and the normal liver cell LO2.
(§2) Compounds 1–6 were evaluated for the cytotoxicity against five human cancer cell lines and normal LO2, including OCVaR, HepG2, HeLa, HT-29, and Hep3B, by a previously reported method The tested cells were purchased from the Cell Bank of Chinese Academy of Science, Shanghai, China. For all cell lines, 5000 cells/ well were seeded into 96-well plates (n = 3) and cultured for 18 h, then exposed to the test compounds at concentrations ranging from 0.064 to 40 μM for 48 h, with cis-platin as the positive control. Briefly, 10 μL/well of MTT was added and cultured for another 4 h before removing medium and adding 100 μL of DMSO. The absorbance at 490 nm was detected, and complete medium containing only 0.1% DMSO was defined as 100% and blank well as 0%. The concentration−response relationships were analyzed using Graphpad Prism Software, version 7.0, and IC50 values derived using nonlinear regression analysis fit to a logistic equation.

[2] = MTT cytotoxicity assay, HepG2; format: cell-based; settings: human, HepG2 cells, 0.064 to 40 μM
Description: as §1, §2

[3] = MTT cytotoxicity assay, normal liver cell LO2; format: cell-based; settings: human, LO2 normal liver cells, 0.064 to 40 μM
Description: as §1, §2

[4] = MTT cytotoxicity assay, Hep3B; format: cell-based; settings: human, Hep3B cells, 0.064 to 40 μM
Description: as §1, §2

[5] = MTT cytotoxicity assay, OCVAR; format: cell-based; settings: human, OCVAR cells, 0.064 to 40 μM
Description: as §1, §2

[6] = MTT cytotoxicity assay, HeLa; format: cell-based; settings: human, HeLa cells, 0.064 to 40 μM
Description: as §1, §2

[7] = test system: PPAR-γ; parameters: method as in PMID 30525677; settings: cited from earlier work
[8] = test system: IKKβ; parameters: method as in PMID 30095270; settings: cited from earlier work

Compound | IC50 at 48 h [1] [µM] | IC50 at 48 h [2] [µM] | IC50 at 48 h [3] [µM] | IC50 at 48 h [4] [µM] | IC50 at 48 h [5] [µM] | IC50 at 48 h [6] [µM] | agonistic action upon PPAR-γ [7] | IKKβ inhibitory effect [8]
COCc1ccc(C=O)n1CCCC(=O)O [Compound 5, 4-[2-formyl-5-(methoxymethyl)-1H-pyrrol-1-yl]butanoic acid] | > 40 | > 40 | > 40 | > 40 | > 40 | > 40 |  | 
alterbrassicicene A |  |  |  |  |  |  | strong agonistic action upon PPAR-γ | 
alterbrassicene A |  |  |  |  |  |  |  | potent IKKβ inhibitory effect
CCCCOC(=O)CCCCNC(C)=O [Compound 2, butyl 5-acetamidopentanoate] | > 40 | > 40 | > 40 | > 40 | > 40 | > 40 |  | 
